Read-outs that look alike come from different tables or passages of the source.
Tests used:
LTD4 receptor = target: T1, LTD4 receptor (Cavia porcellus, UniProt Q2NNR5); assay: LTD4 receptor binding inhibition test ([^3 H]leukotriene D4, guinea pig pulmomembranous protein); conditions: for inhibition at 10 µM / inhibition at 100 µM: read-out: LTD4 receptor (%), inhibition rate; for Kd: read-out: LTD4 receptor, dissociation constant KD; for inhibition at 100 µM: a: 100 μM
T1 construct: guinea pig pulmomembranous protein; from tissue; host or cells: guinea pig lung membranes
T1 sequence (Q2NNR5 1-340): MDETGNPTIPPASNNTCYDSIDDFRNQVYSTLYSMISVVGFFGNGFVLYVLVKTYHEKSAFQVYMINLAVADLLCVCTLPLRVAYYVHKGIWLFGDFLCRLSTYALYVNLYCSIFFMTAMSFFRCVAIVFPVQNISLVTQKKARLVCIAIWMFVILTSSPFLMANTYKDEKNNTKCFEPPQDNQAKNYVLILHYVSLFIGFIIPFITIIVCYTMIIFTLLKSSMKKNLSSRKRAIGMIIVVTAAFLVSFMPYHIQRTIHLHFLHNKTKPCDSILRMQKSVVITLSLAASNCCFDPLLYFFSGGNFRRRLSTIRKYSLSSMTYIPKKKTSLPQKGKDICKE
Procedure: 2) LTD4 Receptor Binding Inhibition Test
An ice-cooled tris hydrochloride/sodium chloride buffer (10 mM/100 mM, pH 7.5) was added to terminate the reaction, followed by immediate filtration through a Wattman CF/C filter. The filter was washed twice with 20 ml aliguots of the ice-cooled buffer. The radioactivity of the residue was measured by a liquid scintillation counter. […] In a binding assay, 2 μM leukotriene D4 was used for the measurement of a nonspecific binding.

H1 receptor = target: T2, H1 receptor (Cavia porcellus, UniProt P31389); assay: H1 receptor binding inhibition test ([^3 H]mepyramin, guinea pig cerebromembranous protein); conditions: for Kd: read-out: H1 receptor, dissociation constant KD; for inhibition at 100 µM: a: 100 μM; for inhibition at 100 µM / inhibition at 10 µM: read-out: H1 receptor (%), inhibition rate; for inhibition at 10 µM: b: 10 μM
T2 construct: guinea pig cerebromembranous protein; from tissue; host or cells: guinea pig cerebral (brain) membranes
T2 sequence (P31389 whole entry): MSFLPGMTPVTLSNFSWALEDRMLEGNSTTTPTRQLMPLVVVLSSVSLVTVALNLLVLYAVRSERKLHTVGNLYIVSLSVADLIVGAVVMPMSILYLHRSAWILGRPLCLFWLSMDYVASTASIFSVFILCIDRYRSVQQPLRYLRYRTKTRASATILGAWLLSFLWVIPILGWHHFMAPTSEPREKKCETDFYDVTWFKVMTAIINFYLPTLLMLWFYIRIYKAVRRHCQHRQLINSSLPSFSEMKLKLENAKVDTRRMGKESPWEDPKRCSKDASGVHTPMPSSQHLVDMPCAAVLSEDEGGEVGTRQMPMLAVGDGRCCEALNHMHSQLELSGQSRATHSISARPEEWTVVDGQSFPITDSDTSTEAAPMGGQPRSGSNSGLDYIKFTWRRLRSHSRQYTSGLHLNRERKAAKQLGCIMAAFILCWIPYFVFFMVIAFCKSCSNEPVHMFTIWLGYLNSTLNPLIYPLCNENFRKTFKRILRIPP
Procedure: 1) H1 Receptor Binding Inhibition Test
An ice-cooled phosphate buffer was added to terminate the reaction, followed by immediate filtration through a Wattman CF/C filter. The filter was washed twice with 20 ml aliquots of the ice-cooled buffer. The radioactivity of the residue was measured by a liquid scintillation counter. From a measurement value obtained without the addition of the test compound and measurements values obtained upon addition of the test compound at various concentrations, the dose-response of the inhibitory action of the test compound was measured and the 50% inhibitory concentration (IC50) was determined. Using the Cheng-Prusoff formula, a dissociation constant was calculated from the IC50. In a binding assay, 10^-4 M R(-)dimethindene was used for the measurement of a nonspecific binding.

Compound	Kd (LTD4 receptor)	inhibition at 100 µM (H1 receptor)	other results
7-[4-(2-quinolinylmethoxy)benzyloxy]-2,3,4,5-tetrahydro-tetrazolo-[5,1-a][2]benzazepin [Example 88]			LTD4 receptor (%), inhibition rate (LTD4 receptor; b: 10 μM): 30%; Kd (H1 receptor; 0.5 nM [^3 H]mepyramin, pH 7.5, 37° C., 30 minutes, calculated from IC50 with Cheng-Prusoff formula): 31100 nM
O=C1CSc2cc(N=Cc3ccc(OCc4ccc5ccccc5n4)cc3)ccc2N1 [Example 92, 7-[4-(2-quinolinylmethoxy)benzylidenamino]-3,4-dihydro-2H-1,4-benzothiazin-3-one]			inhibition at 10 µM (LTD4 receptor; b: 10 μM): 0%; Kd (H1 receptor): 120 nM
O=C1CSc2cc(N=Cc3cccc(OCc4ccc5ccccc5n4)c3)ccc2N1 [Example 91, 7-[3-(2-quinolinylmethoxy)benzylidenamino]-3,4-dihydro-2H-1,4-benzothiazin-3-one]			inhibition at 10 µM (LTD4 receptor; b: 10 μM): 37%; Kd (H1 receptor): 120 nM
Cn1c(COc2ccc(COc3ccc4c(c3)SCC(=O)N4)cc2)nc2ccccc21 [Example 38, 7-(4-(N-methylbenzimidazol-2-yl-methoxy)benzyloxy]-3,4-dihydro-2H-1,4-benzothiazin-3-one]	303 nM	47%	
CCCCCCc1cc(OCc2cccc(OCc3ccc4ccccc4n3)c2)cc2c1C(C)(C)C(=O)N2 [Example 16, 3,3-Dimethyl-4-(n-hexyl)-6-[3-(2-quinolinylmethoxy)benzyloxy]-2,3-dihydro-1H-indol-2-one]	2500 nM	48%	
O=C1CSc2c(cccc2NC(=O)c2cccc(OCc3ccc4ccccc4n3)c2)N1 [Example 70, 8-(3-(2-Quinolinylmethoxy)benzoylamino]-3,4-dihydro-2H-1,4-benzothiazin-3-one]	208 nM	37%	
CC1(C)C(=O)Nc2ccc(OCc3cccc(OCc4ccc5ccccc5n4)c3)cc21 [Example 14, 3,3'-Dimethyl-5-[3-(2-quinolinylmethoxy)benzyloxy]-2,3-dihydro-1H-indol-2-one]	215 nM	29%	
Cc1ccc(OC(=O)c2cccc(OCc3ccc4ccccc4n3)c2)c2c1NC(=O)CC2 [Example 54, 8-Methyl-5-[3-(2-quinolinylmethoxy)benzoyloxy]-1,2,3,4-tetrahydroquinolin-2-one]	129 nM	41%	
CN(Cc1cccc(OCc2ccc3ccccc3n2)c1)c1ccc2c(c1)SCC(=O)N2 [96(a), 7-[N-methyl-N-{3-(2-quinolinylmethoxy)benzyl}amino]-3,4-dihydro-2H-1,4-benzothiazin-3-one]			inhibition at 10 µM (LTD4 receptor; b: 10 μM): 9%; inhibition at 10 µM (H1 receptor): 4%
O=C1CCS(=O)(=O)c2cc(OCc3cccc(OCc4ccc5ccccc5n4)c3)ccc2N1 [Example 76]			inhibition at 100 µM (LTD4 receptor): 0%; Kd (H1 receptor): 122000 nM
Cc1ccc(OCc2ccc(OCc3ccc4ccccc4n3)cc2)c2c1NC(=O)C2(C)C [Example 27, 4-[4-(2-Quniolinylmethoxy)benzyloxy]-3,3,7-trimethyl-2,3-dihydydro-1H-indol-2-one]	139 nM	38%	
CC1(C)C(=O)Nc2cc(OCc3ccc(OCc4ccc5ccccc5n4)cc3)ccc21 [Example 28, 3,3-Dimethyl-6-[4-(2-quinolinylmethoxy)benzyloxy]-2,3-dihydro-1H-indol-2-one]	1400 nM	30%	
Cc1ccc(OCc2cccc(OCc3ccc4ccccc4n3)c2)c2c1NC(=O)CC2 [Example 5, 8-Methyl-5-[3-(2-quinolinylmethoxy)benzyloxy]-1,2,3,4-tetrahydroquinolin-2-one]	316 nM	57%	
O=C1CCCc2cc(OC(=O)c3cccc(OCc4ccc5ccccc5n4)c3)ccc2N1 [Example 57]			Ki (LTD4 receptor; read-out: LTD4 receptor, dissociation constant KD (converted)): 851 nM; Kd (H1 receptor): 57900 nM
CCOCCn1c(COc2cccc(COc3ccc(C)c4c3C(C)(C)C(=O)N4)c2)nc2ccccc21 [Example 43, 4-(3-(N-ethoxylethylbenzimidazol-2-yl-methoxy)benzyloxy)-3,3,7-trimethyl-2,3-dihydro-1H-indol-2-one]	5510 nM		Kd (H1 receptor): 6060 nM
O=C1CCc2ccc(OC(=O)c3cccc(OCc4ccc5ccccc5n4)c3)cc2N1 [Example 56, 7-[3-(2-Quinolinylmethoxy)benzoyloxy]-1,2,3,4-tetrahydroquinolin-2-one]			inhibition at 100 µM (LTD4 receptor): 12%; Kd (H1 receptor): 93000 nM
O=C1Cc2c(cccc2OCc2cccc(OCc3ccc4ccccc4n3)c2)N1 [Example 12, 4-[3-(2-Quinolinylmethoxy)benzyloxy)-2,3-dihydro-1H-indol-2-one]	703 nM		H1 receptor (%), inhibition rate (H1 receptor; concentration not given): 45%
Cn1c(COc2cccc(COc3ccc4c(c3)SCC(=O)N4)c2)nc2ccccc21 [Example 36, 7-(3-(N-methylbenzimidazo1-2-yl-methoxy)benzyloxy]-3,4-dihydro-2H-1,4-benzothiazin-3-one]	135 nM		Kd (H1 receptor): 16200 nM
CC1(C)C(=O)Nc2ccc(OC(=O)c3ccc(OCc4ccc5ccccc5n4)cc3)cc21 [Example 67, 3,3-Dimethyl-5-[4-(2-quinolinylmethoxy)benzoyloxy]-2,3-dihydro-1H-indol-2-one]		49%	inhibition at 100 µM (LTD4 receptor): 52%

More lines, main results first:

Kd (LTD4 receptor)	inhibition at 100 µM (H1 receptor)	Compound	other results
92.8 nM		O=C1NCCCc2cc(OCc3cccc(OCc4ncc5ccccc5n4)c3)ccc21 [Example 86, 7-[3-(2-quinazolinylmethoxy)benzyloxy]-2,3,4,5-tetrahydro-1H-benz[c]azepin-1-one]	inhibition at 10 µM (H1 receptor): 9%
	36%	O=C1CS(=O)(=O)c2cc(NC(=O)c3cccc(OCc4ccc5ccccc5n4)c3)ccc2N1 [Example 80]	inhibition at 10 µM (LTD4 receptor; b: 10 μM): 27%
681 nM		CN1C(=O)CSc2c(NCc3cccc(OCc4ccc5ccccc5n4)c3)cccc21 [Example 97, 4-methyl-8-[3-(2-quinolinylmethoxy)benzylamino]-3,4-dihydro-2H-1,4-benzothiazin-3-one]	inhibition at 10 µM (H1 receptor): 7%
310 nM		Cn1c(COc2cccc(COc3ccc4c(c3)CCCC(=O)N4)c2)nc2ccccc21 [Example 83]	inhibition at 10 µM (H1 receptor): 0%
608 nM		O=C1CSc2c(NCc3cccc(OCc4ccc5ccccc5n4)c3)cccc2N1 [Example 95, 8-[3-(2-quinolinylmethoxy)benzylamino]-3,4-dihydro-2H-1,4-benzothiazin-3-one]	inhibition at 10 µM (H1 receptor): 33%
	43%	Cn1c(COc2cccc(COc3ccc4c(c3)S(=O)(=O)CC(=O)N4)c2)nc2ccccc21 [Example 79, 7-[3-(N-Methylbenzimidazol-2-yl-methoxy)benzyloxy]-3,4-dihydro-2H-1,4-benzothiazin-3-one 1,1-dioxide]	inhibition at 10 µM (LTD4 receptor; b: 10 μM): 42%
